Values quoted from earlier work in patent US20040214861A1, “Compositions of a cyclooxygenase-2 selective inhibitors and 5-HT1B1D antagonists for the treatment and prevention of migraine” (Pharmacia Corporation, priority 2003, published 2004).

Details: at one and two hours after administration; compared with sumatriptan

## CN1CCC[C@@H]1Cc1c[nH]c2ccc(CCS(=O)(=O)c3ccccc3)cc12 [eletriptan]
  effectiveness after administration: greater effectiveness at one and two hours after administration than sumatriptan
